Laboratory results reported in US8575156B2, “Cyclic inhibitors of 11β-hydroxysteroid dehydrogenase 1” (Vitae Pharmaceuticals, Inc., priority 2007, dated 2013).
Read-outs that look alike come from different tables or passages of the source.

Target: 11β-HSD1 (Homo sapiens, UniProt P28845)
Test: biochemical
Details: for IC50: IC50 Range, Biological Test Example 1, microsomes from CHO cells overexpressing human 11β-HSD1; for inhibition at 0.1111 µM: read-out: Average % inhibition at 111.1 nM, Biological Test Example 1
[1] = read-out: Average % inhibition at 100 nM, Biological Test Example 1, 100 nM compound
[2] = read-out: Average % inhibition at 100 nM, Biological Test Example 1, 100 nM

Chain of 11β-HSD1 (P28845 whole entry): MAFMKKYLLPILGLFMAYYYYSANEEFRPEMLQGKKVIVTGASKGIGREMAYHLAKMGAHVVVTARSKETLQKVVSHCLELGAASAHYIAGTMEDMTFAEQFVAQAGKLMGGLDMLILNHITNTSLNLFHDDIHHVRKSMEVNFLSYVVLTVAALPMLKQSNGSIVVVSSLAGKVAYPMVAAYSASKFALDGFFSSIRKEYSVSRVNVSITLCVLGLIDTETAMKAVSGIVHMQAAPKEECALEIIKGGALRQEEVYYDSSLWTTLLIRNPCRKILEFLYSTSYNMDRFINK

Structure (SMILES) | IC50 | inhibition at 0.1111 µM (111.1 nM compound) | inhibition at 0.1 µM [2] | other results
COc1cccc(-c2cccc(N3CCC(C)(c4ccccc4)OC3=O)c2)c1 (centres unmarked) [EXAMPLE 34, 3-(3′-methoxybiphenyl-3-yl)-6-methyl-6-phenyl-1,3-oxazinan-2-one] | < 100 nM | 72% | – | –
CC1(c2ccccc2)CCN(c2cccc(-c3ccccc3C#N)c2)C(=O)O1 (centres unmarked) [EXAMPLE 12, 3′-(6-Methyl-2-oxo-6-phenyl-[1,3]oxazinan-3-yl)-biphenyl-2-carbonitrile] | < 100 nM | 86.4% | – | –
C[C@@H](c1cccc(OCC(C)(C)O)c1)N1CCC(C)(c2ccccc2)OC1=O (mixture of isomers) [EXAMPLE 93] | 100 to 1000 nM | 45.3% | – | –
CC1(c2ccccc2)CCN(c2nccc(-c3ccc(F)cc3)n2)C(=O)O1 (centres unmarked) [EXAMPLE 61, 3-(4-(4-fluorophenyl)pyrimidin-2-yl)-6-methyl-6-phenyl-1,3-oxazinan-2-one] | 100 to 1000 nM | 17.7% | – | –
COc1ccc([C@H](C)N2CC[C@](CCNS(C)(=O)=O)(c3ccc(F)cc3)OC2=O)cc1 [EXAMPLE 301, N-(2-((S)-6-(4-fluorophenyl)-3-((S)-1-(4-methoxyphenyl)ethyl)-2-oxo-1,3-oxazinan-6-yl)ethyl)methanesulfonamide] | < 100 nM | – | – | inhibition at 0.1 µM [1]: 86.7%
C[C@@H](c1cccc(Cl)c1)N1CC[C@](CCCO)(c2ccc(F)cc2)OC1=O [EXAMPLE 360, (R)-3-((S)-1-(3-chlorophenyl)ethyl)-6-(4-fluorophenyl)-6-(3-hydroxypropyl)-1,3-oxazinan-2-one] | < 100 nM | – | 97% | –
COC(=O)c1cccc(-c2cccc(N3CCC(C)(c4ccccc4)OC3=O)c2)c1 (centres unmarked) [EXAMPLE 38, methyl 3′-(6-methyl-2-oxo-6-phenyl-1,3-oxazinan-3-yl)biphenyl-3-carboxylate] | 100 to 1000 nM | 17.8% | – | –
COc1ccc([C@H](C)N2CCC(C)(c3ccccc3)OC2=O)cc1 (single isomer, unassigned) [EXAMPLE 85 Isomer 1] | < 100 nM | 93.1% | – | –
C[C@@H](c1ccc(-c2cccc(CN)c2)cc1)N1CC[C@](CCCO)(c2ccccc2)OC1=O [EXAMPLE 493, (R)-3-((S)-1-(3′-(aminomethyl)biphenyl-4-yl)ethyl)-6-(3-hydroxypropyl)-6-phenyl-1,3-oxazinan-2-one] | < 100 nM | – | 89.1% | –
C[C@@H](c1ccc(CO)cc1)N1CC[C@](CCCO)(c2ccc(F)cc2)OC1=O [EXAMPLE 154, (R)-6-(4-fluorophenyl)-3-((S)-1-(4-(hydroxymethyl)phenyl)ethyl)-6-(3-hydroxypropyl)-1,3-oxazinan-2-one] | < 100 nM | 79% | – | –
C[C@@H](c1ccc(-c2ccc(F)cc2F)cc1)N1CC[C@](CCS(C)(=O)=O)(c2ccc(F)cc2)OC1=O [EXAMPLE 229, (S)-3-((S)-1-(2′,4′-difluorobiphenyl-4-yl)ethyl)-6-(4-fluorophenyl)-6-(2-(methylsulfonyl)ethyl)-1,3-oxazinan-2-one] | < 100 nM | – | – | inhibition at 0.1 µM (read-out: Average % inhibition at 100 nM): 81.6%
CS(=O)(=O)NCCC1(c2ccccc2)CCN(c2cccc(-c3ccc(F)cc3F)c2)C(=O)O1 (centres unmarked) [EXAMPLE 99, N-(2-(3-(2′,4′-difluorobiphenyl-3-yl)-2-oxo-6-phenyl-1,3-oxazinan-6-yl)ethyl)methanesulfonamide] | < 100 nM | 75.3% | – | –
C[C@@H](c1ccc(Cl)cc1)N1CC[C@](CCC(C)(C)O)(c2ccc(F)cc2)OC1=O [EXAMPLE 382, (R)-3-((S)-1-(4-chlorophenyl)ethyl)-6-(4-fluorophenyl)-6-(3-hydroxy-3-methylbutyl)-1,3-oxazinan-2-one] | < 100 nM | – | 81.3% | –
O=C1OC(CCO)(c2ccccc2F)CCN1c1ccc(Cl)c(-c2ccc(F)cc2F)n1 (centres unmarked) [EXAMPLE 135, 3-(5-chloro-6-(2,4-difluorophenyl)pyridin-2-yl)-6-(2-fluorophenyl)-6-(2-hydroxyethyl)-1,3-oxazinan-2-one] | < 100 nM | 93.8% | – | inhibition at 0.1 µM [1]: 88.9%
Cc1cccc(C2(C)CCN([C@@H](C)c3ccccc3)C(=O)O2)c1 (single isomer, unassigned) [EXAMPLE 87 Isomer 1] | 100 to 1000 nM | 13.3% | – | –
C[C@@H](c1cccc(C#N)c1)N1CC[C@](CCCOC(=O)C(F)(F)F)(c2ccc(F)cc2)OC1=O [EXAMPLE 361, 3-((R)-3-((S)-1-(3-cyanophenyl)ethyl)-6-(4-fluorophenyl)-2-oxo-1,3-oxazinan-6-yl)propyl 2,2,2-trifluoroacetate] | < 100 nM | – | 67.4% | –
O=C1OC(CCO)(c2ccccc2)CCN1c1ccc(F)c(-c2ccc(F)cc2Cl)c1 (centres unmarked) [EXAMPLE 101, 3-(2′-chloro-4′,6-difluorobiphenyl-3-yl)-6-(2-hydroxyethyl)-6-phenyl-1,3-oxazinan-2-one] | < 100 nM | 84.4% | – | –

Structure (SMILES) | IC50 | inhibition at 0.1111 µM (111.1 nM compound) | inhibition at 0.1 µM [2] | other results
C[C@@H](c1ccc(S(C)(=O)=O)cc1)N1CC[C@](CCO)(c2ccc(F)cc2)OC1=O [EXAMPLE 308, (S)-6-(4-fluorophenyl)-6-(2-hydroxyethyl)-3-((S)-1-(4-(methylsulfonyl)phenyl)ethyl)-1,3-oxazinan-2-one] | > 1000 nM | – | 25% | inhibition at 0.1111 µM (111.1 nM): 8.6%
C[C@@H](c1ccc(C(F)(F)F)cc1)N1CC[C@](CCCO)(c2ccccc2)OC1=O [EXAMPLE 532, (R)-6-(3-hydroxypropyl)-6-phenyl-3-((S)-1-(4-(trifluoromethyl)phenyl)ethyl)-1,3-oxazinan-2-one] | < 100 nM | – | 96.3% | –
NCCC1(c2ccccc2)CCN(c2cccc(-c3ccc(F)cc3F)c2)C(=O)O1 (centres unmarked) [EXAMPLE 75, 6-(2-aminoethyl)-3-(2′,4′-difluorobiphenyl-3-yl)-6-phenyl-1,3-oxazinan-2-one] | < 100 nM | 57.8% | – | –
C=CCC1(c2ccc(F)cc2)CCN([C@@H](C)c2ccccc2)C(=O)O1 (stereo partly drawn) [EXAMPLE 95, 6-allyl-6-(4-fluorophenyl)-3-((S)-1-phenylethyl)-1,3-oxazinan-2-one] | < 100 nM | 97.3% | – | –
O=C1OC(CC(O)CO)(c2ccccc2)CCN1c1cccc(-c2ccc(F)cc2F)c1 (centres unmarked) [EXAMPLE 77, 3-(2′,4′-difluorobiphenyl-3-yl)-6-(2,3-dihydroxypropyl)-6-phenyl-1,3-oxazinan-2-one] | < 100 nM | 89.2% | – | inhibition at 0.1 µM [1]: 88.7%
C[C@@H](c1ccc(Cl)cc1)N1CC[C@](CCCO)(c2ccc(F)cc2)OC1=O [EXAMPLE 202, (R)-3-((1S)-1-(4-chlorophenyl)ethyl)-6-(4-fluorophenyl)-6-(3-hydroxypropyl)-1,3-oxazinan-2-one] | < 100 nM | – | – | inhibition at 0.1 µM [1]: 95.9%
C[C@@H](c1ccc(Cl)cc1)N1CC[C@](CC(C)(C)O)(c2ccccc2)OC1=O [EXAMPLE 402, (S)-3-((S)-1-(4-chlorophenyl)ethyl)-6-(2-hydroxy-2-methylpropyl)-6-phenyl-1,3-oxazinan-2-one] | < 100 nM | – | 96.8% | –
C[C@@H](c1ccc(Br)cc1)N1CC[C@](CC(C)(C)CO)(c2ccc(F)cc2)OC1=O [EXAMPLE 528, (R)-3-((S)-1-(4-bromophenyl)ethyl)-6-(4-fluorophenyl)-6-(3-hydroxy-2,2-dimethylpropyl)-1,3-oxazinan-2-one] | < 100 nM | – | 98.6% | –
CC(C#N)C[C@]1(c2ccc(F)cc2)CCN([C@@H](C)c2ccc(Br)cc2)C(=O)O1 (stereo partly drawn) [EXAMPLE 520, 3-((R)-3-((S)-1-(4-bromophenyl)ethyl)-6-(4-fluorophenyl)-2-oxo-1,3-oxazinan-6-yl)-2-methylpropanenitrile] | < 100 nM | – | 98% | –
Cc1cc(-c2ccc([C@H](C)N3CC[C@](CC(C)(C)O)(c4ccc(F)cc4)OC3=O)cc2)cc(C)[n+]1[O-] [EXAMPLE 557, 4-(4-((S)-1-((S)-6-(4-fluorophenyl)-6-(2-hydroxy-2-methylpropyl)-2-oxo-1,3-oxazinan-3-yl)ethyl)phenyl)-2,6-dimethylpyridine 1-oxide] | – | – | – | inhibition at 0.1111 µM (111.1 nM): 89.7%
COc1ccc([C@H](C)N2CC[C@](CCC(N)=O)(c3ccccc3)OC2=O)cc1 [EXAMPLE 315, 3-((R)-3-((S)-1-(4-methoxyphenyl)ethyl)-2-oxo-6-phenyl-1,3-oxazinan-6-yl)propanamide] | < 100 nM | – | 93.2% | –
C[C@@H](c1ccc(-c2ccc(F)cc2F)cc1)N1CC[C@](CC(O)CO)(c2ccc(F)cc2)OC1=O (stereo partly drawn) [EXAMPLE 52, (6S)-3-((S)-1-(2′,4′-difluorobiphenyl-4-yl)ethyl)-6-(2,3-dihydroxypropyl)-6-(4-fluorophenyl)-1,3-oxazinan-2-one] | < 100 nM | – | – | inhibition at 0.1 µM [1]: 98.6%
Cc1ccc([C@H](C)N2CC[C@](CC(C)(C)O)(c3ccccc3)OC2=O)cc1 [EXAMPLE 422, (S)-6-(2-hydroxy-2-methylpropyl)-6-phenyl-3-((S)-1-p-tolylethyl)-1,3-oxazinan-2-one] | < 100 nM | – | 100% | –
C=CC[C@]1(c2ccc(F)cc2)CCN([C@@H](C)c2ccc(Br)cc2)C(=O)O1 (single isomer, unassigned) [EXAMPLE 110 Isomer 2] | < 100 nM | 95% | – | inhibition at 0.1 µM [1]: 96.6%
C[C@@H](c1ccc(Br)cc1)N1CC[C@](CC(O)CO)(c2ccc(F)cc2)OC1=O (single isomer, unassigned) [EXAMPLE 144 Isomer 1] | < 100 nM | 90.6% | – | –
CC(C)NS(=O)(=O)c1ccc(-c2cccc(N3CCC(C)(c4ccccc4)OC3=O)c2)cc1 (centres unmarked) [EXAMPLE 13, N-isopropyl-3′-(6-methyl-2-oxo-6-phenyl-1,3-oxazinan-3-yl)biphenyl-4-sulfonamide] | 100 to 1000 nM | 19.2% | – | –
O=C1OC(CCO)(c2ccc(F)cc2)CCN1c1cccc(-c2ccc(F)cc2F)n1 (centres unmarked) [EXAMPLE 108, 3-(6-(2,4-difluorophenyl)pyridin-2-yl)-6-(4-fluorophenyl)-6-(2-hydroxyethyl)-1,3-oxazinan-2-one] | < 100 nM | 55.4% | – | –
